Read-outs that look alike come from different tables or passages of the source.
Experiments:
[1] = tested on: Schistosoma mansoni schistosomula (somules); test: S. mansoni somules phenotypic screen Caffrey
P. falciparum HB3 = test: Stage-specificity / mitochondrial integrity image assay Ayong; type: cell-based; conditions: 10µM
[2] = tested on: U87-CD4-CCR5 or U87-CD4-CXCR4 cells; test: U87 cell viability MTT; type: cell-based; conditions: for U87 % cell death rep3 (X4 P24 Washout expt): 5uM; for U87 % Cell Death rep3 (R5 P24 Washout expt) / U87 % cell death rep3 (R5 P24 NO Washout expt) / U87 % cell death rep3 (X4 P24 NO Washout expt) / U87 Luc % cell death rep1 / U87 Luc % cell death rep2: 5µM
[3] = tested on: HIV-1 JR-FL or HIV-1 NL4-3 viruses; test: HIV-1 viral production p24 ELISA; type: cell-based
Protocol: Columns FK-GB, Moore group (data presented first in this paper). HIV and HIV-producing cell lines, toxicity and viral suppression. […] MMV compounds were incubated with HIV-1 JR-FL or HIV-1 NL4-3 pseudoviruses and U87-CD4-CCR5 or U87-CD4-CXCR4 cells (obtained through the NIH AIDS Reagent Program, Division of AIDS, NIAID, NIH: U87 CD4+CCR5+ Cells from Dr. HongKui Deng and Dr. Dan R. Littman) respectively for 3 days. Cells were assayed for infection by luciferase production (Bright-Glo Luciferase Substrate, Promega) and cell viability by MTT assay. […] MMV compounds were next incubated with HIV-1 JR-FL or HIV-1 NL4-3 viruses and U87-CD4-CCR5 or U87-CD4-CXCR4 cells respectively for 7 days. Cell supernatants were assayed for viral production by p24 ELISA [153] and cell viability by MTT assay. […] DMSO (5%) was completely toxic to all cells (based on visual inspection) and served as the positive control for MTT assays.

T. equi (USDA strain) = test: T. equi fluorescence-based growth assay; type: cell-based; conditions: Theileria equi
[4] = tested on: P. berghei liver stages in HepG2; test: P. berghei liver stage luciferase Hanson; type: cell-based; conditions: Plasmodium berghei, read-out: P. berghei Liver Stage % of control infection (Luciferase)
Protocol: Columns AS-AT: Hanson group (data presented first in this paper). P. berghei liver stage growth. Phenotypic analysis of Malaria Box compound activity against P. berghei liver stages and assay development will be reported elsewhere (Medina Vera, Itoe, et al; in preparation). Methods: Screening was carried out in 96 well plates, with 10,000 HepG2 cells (ATCC) seeded one day prior to infection with 10,000 P. berghei-Luciferase (676m1cl1) sporozoites per well in the presence of 1:300 Fungizone (Life Technologies). Medium was replaced 2 hours post-infection (hpi) and the Malaria Box compounds were added at a final concentration of 5 µM at this time. At 48 hpi, parasite load, by way of luminescence, was quantified after a 10 minute incubation with 50 µl of 150 µg/ml D-Luciferin on a Tecan Infinite M200 plate reader. Plates included 8 wells of DMSO (compound vehicle and positive control for infection), along with 8 non-infected wells serving as negative controls. Luminescence values for individual wells were normalized to the mean of the in-plate DMSO controls, which was set at 100. […] The normalized mean of non-infected control wells was 2.5, with a standard deviation of 2. Data presented are the average of 3 independent experiments, each conducted in technical triplicate. Toxicity of the compounds was determined at 66 hpi based on HepG2 cell abundance in 9 non-overlapping images per well, generated with a Molecular Devices IXM using a 40x objective. Briefly, EEFs were identified based on 2E6 immunolabeling and used to mask widefield images of Hoechst 33452-labeled nuclei, and the percentage of each 2,160 x 2,160 pixel image occupied by Hoechst^+ pixels, representing HepG2 nuclei only, was then determined for all images in CellProfiler. Data is from one representative experiment. The mean area occupied by HepG2 nuclei in the 8 DMSO controls wells was set to 1, and used to normalize those treated with compounds.

Trypanosoma cruzi = test: T. cruzi Scynexis; type: cell-based
Chromera velia = Chromera velia flagellation motility assay; conditions: 1µM
Aedes aegypti = Aedes aegypti Scynexis; conditions: 10µM
Protocol: Supplement ppat.1005763.s002.xlsx, sheet "S1 Table Heat Map" | column: Aedes aegypti % dead 48hr 10 µM Synexis

[5] = tested on: Perkinsus marinus trophozoites; set-up: method as in ref [96] (a number printed in a supplementary file, which may have a reference list of its own: not looked up in the article's list); conditions: 20µM; ref [96]; cited from earlier work
[6] = tested on: Entamoeba histolytica Rahman; set-up: method as in ref [87] (a number printed in a supplementary file, which may have a reference list of its own: not looked up in the article's list); conditions: read-out: Entamoeba histolytica Rahman EC50 (30 means >30); ref [87]; cited from earlier work
[7] = tested on: P. falciparum NF54 gametocytes; set-up: method as in ref [72] (a number printed in a supplementary file, which may have a reference list of its own: not looked up in the article's list); conditions: 10µM; ref [72]; cited from earlier work
[8] = tested on: HIV-1 JR-FL or HIV-1 NL4-3 pseudoviruses; test: HIV-1 pseudovirus infection luciferase; type: cell-based; conditions: Human immunodeficiency virus 1, HXB2 / NL43, read-out: HIV HXB2 % inhibition rep2 in U87 Luc
Dictyostelium discoideum = test: D. discoideum toxicity assay; type: cell-based; conditions: 10µM
Protocol: Columns FA-FC: Soldati Group (data presented first in this paper). M. marinum, D. discoideum, and Acathamoeba castellani assays. Each compound of the Malaria Box has been assayed at 10 µM in all three assays. First, the antibiotic activity was assayed directly against Mycobacterium marinum in its culture medium. Second, the toxicity and growth inhibitory effect of the compounds was assayed against the amoeba Dictyostelium discoideum in its culture medium. Finally, the “in cellulo” anti-infective activity of each compound was tested using the intracellular infection system Acanthamoeba castellanii-M. marinum. Values have been normalized using the DMSO carrier. For each assay, values have been normalized to 1.00 using the DMSO carrier, which has no detectable effect on D. discoideum nor M. marinum growth, while rifabutin was used as positive control for the antibiotic assay and the infection assay, as it abolishes M. marinum growth (normalized value under 0.10) in broth at 10 µM and intracellularly at 30 µM [150].

[9] = Human immunodeficiency virus 1, NL43, read-out: HIV R5 % inhibition rep3 in U87 (P24 Washout)
[10] = Human immunodeficiency virus 1, NL43, read-out: HIV X4 % inhibition rep3 in U87 (P24 NO Washout)
[11] = Human immunodeficiency virus 1, NL43, read-out: HIV X4 %inhibition rep3 in U87 (P24 Washout)

| SMILES | S. mansoni newly transformed schistosomula, visual tox scale, 0 = none, 4=most damaged ([1]; 24 h at 2.5µM) | S. mansoni newly transformed schistosomula, visual tox scale, 0 = none, 4=most damaged ([1]; 72 h at 2.5µM) | P. falciparum HB3 late ring (LR) stage activity (P. falciparum HB3) | U87 % cell death rep3 (X4 P24 Washout expt) [2] [%] | U87 % Cell Death rep3 (R5 P24 Washout expt) [2] [%] | U87 % cell death rep3 (R5 P24 NO Washout expt) [2] [%] | U87 % cell death rep3 (X4 P24 NO Washout expt) [2] [%] | U87 Luc % cell death rep1 [2] [%] | U87 Luc % cell death rep2 [2] [%] | inhibition at 5 µM [3, 9] [%] | inhibition at 5 µM [3, 10] [%] | inhibition at 5 µM [3, 11] [%] | EC50 (T. equi (USDA strain)) [µM] | activity at 5 µM [4] [%] | inhibition at 5 µM (Trypanosoma cruzi) [%] | Chromera velia 24 hr Flagellation (control standardized to ++; 0 = no flagella) (Chromera velia) | Chromera velia 72 hr Flagellation (control standardized to ++; 0 = no flagella) (Chromera velia) | Aedes aegypti % dead 48hr (Aedes aegypti) [%] | Perkinsus marinus % growth [5] [%] | EC50 [6] [µM] | also measured |
| --- | --- | --- | --- | --- | --- | --- | --- | --- | --- | --- | --- | --- | --- | --- | --- | --- | --- | --- | --- | --- | --- |
| CCN1CCN(c2cc(C)c3cc(NC(=O)c4ccc(OC)c(OC)c4)ccc3n2)CC1 [MMV019074] | 1 | 0 | ✖ | -32 | 7.48 | 17 | 3.26 | 0.063 | 10 | 7 | 14 | 6.64 | 0.33 | 105 | 13 | +++ | +++ | -20 | 92 | > 30 | P. falciparum HB3 early ring (ER) stage activity (P. falciparum HB3): ✖; gametocyte stage IV-V SYBR Green % inhibition [7]: 47%; inhibition at 5 µM [8]: -69% |
| COc1ccc(C(=O)Nc2ccc3nc(N4CCCCC4)cc(C)c3c2)cc1OC [MMV019758] | 0 | 0 | ✖ | -25 | 3.19 | 39 | -2.11 | -1.12 | 4.5 | 83 | 68 | 24 | 6.99 | 74 | 71 | + | ++ | 6 | 101 | > 30 | inhibition at 5 µM ([3]; Human immunodeficiency virus 1, NL43, read-out: HIV R5 % inhibition rep3 in U87 (P24 NO Washout)): 31%; Dictyostelium discoideum relative growth DMSO=1 Toxicity Assay (Dictyostelium discoideum): 0.88; gametocyte stage IV-V SYBR Green % inhibition [7]: 49%; inhibition at 5 µM [8]: -36% |

— PMC4965013, “Open Source Drug Discovery with the Malaria Box Compound Collection for Neglected Diseases and Beyond” (PLoS Pathogens, 2016)
